This passage reports IC50 results from patent publication US20240199558A1, “2,4,6-TRISUBSTITUTED 1,3,5-TRIAZINES AS MODULATORS OF CX3CR1” (ASTRAZENECA AB, priority 2022, published 2024).

The target of the assay is CX3CR1 (Homo sapiens (Human), UniProt P49238). As to the kind of experiment: hCX3CR1 [3H]-AZD8797 competitive binding assay (filter). Particulars: CHO-hCX3CR1 membranes, 2 nM [3H]-AZD8797. The protocol: hCX3CR1 [^3H]-AZD8797 Competitive Binding Assay (Filter)
CX3CR1, sequence (P49238 whole entry): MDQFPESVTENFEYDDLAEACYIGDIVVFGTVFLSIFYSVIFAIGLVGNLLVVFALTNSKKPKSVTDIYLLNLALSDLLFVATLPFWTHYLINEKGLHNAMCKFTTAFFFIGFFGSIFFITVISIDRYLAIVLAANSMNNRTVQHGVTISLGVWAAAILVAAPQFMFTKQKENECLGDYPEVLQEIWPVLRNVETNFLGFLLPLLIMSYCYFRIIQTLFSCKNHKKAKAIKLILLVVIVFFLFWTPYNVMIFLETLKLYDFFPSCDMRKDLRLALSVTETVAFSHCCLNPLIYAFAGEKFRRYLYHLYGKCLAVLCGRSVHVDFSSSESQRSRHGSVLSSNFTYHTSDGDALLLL
CHO-hCX3CR1 membranes (9 μg per well) together with 2 nM [^3H]-AZD8797 and different concentrations of competitor compound were incubated in 25 mM HEPES (pH 7.4), 10 mM MgCl2, 1 mM CaCl2) and 0.5% BSA in a Corning polystyrene flat-bottom 96-well plate. The plate was incubated for 2 h at room temperature before free radioligand was separated from bound by vacuum filtration on to a Multiscreen HTS+HiFlow FB (Millipore) filter plate, using a Biomek FX (Beckman Coulter). The filter plate was washed in ice-cold 25 mM HEPES (pH 7.4), 5 mM MgCl2, 1 mM CaCl2) and 500 mM NaCl and dried at 50° C. for 1 h. Scintillation cocktail, Optiphase Supermix (PerkinElmer) was added to each well and the radioactivity was measured using a MicroBeta Trilux reader (PerkinElmer). The DMSO concentration was held constant at 1%.
In turn, `CC(C)C[C@H](CO)Nc1nc(C[C@H](C)c2ccc(F)c(F)c2F)nc(NS(C)(=O)=O)n1` (relative stereo) [Example 87, N-(4-(((R)-1-Hydroxy-4-methylpentan-2-yl)amino)-6-((S*)-2-(2,3,4-trifluorophenyl)propyl)-1,3,5-triazin-2-yl)methanesulfonamide] showed an IC50 of 186 nM.

The compound `COc1cc(C)c([C@@H](C)Cc2nc(N[C@@H](CO)CC(C)C)nc(NS(C)(=O)=O)n2)cn1` (single isomer, unassigned) [Example 14, N-(4-(((R)-1-Hydroxy-4-methylpentan-2-yl)amino)-6-((S*)-2-(6-methoxy-4-methylpyridin-3-yl)propyl)-1,3,5-triazin-2-yl)methanesulfonamide] registered an IC50 greater than 10000 nM. Then `COc1ccc([C@H](C)Cc2nc(N[C@@H](CO)CC(C)C)nc(NS(C)(=O)=O)n2)cc1F` (single isomer, unassigned) [Example 19, N-(4-((R*)-2-(3-Fluoro-4-methoxyphenyl)propyl)-6-(((R)-1-hydroxy-4-methylpentan-2-yl)amino)-1,3,5-triazin-2-yl)methanesulfonamide], with 33 nM; and `COc1ccc([C@@H](C)Cc2nc(N[C@@H](CO)CC(C)C)nc(NS(C)(=O)=O)n2)cc1F` (single isomer, unassigned) [Example 20, N-(4-((S*)-2-(3-Fluoro-4-methoxyphenyl)propyl)-6-(((R)-1-hydroxy-4-methylpentan-2-yl)amino)-1,3,5-triazin-2-yl)methanesulfonamide], with 958 nM; and `CC(C)C[C@H](CO)Nc1nc(C[C@H](C)c2cc(F)c(F)c(F)c2)nc(NS(C)(=O)=O)n1` (single isomer, unassigned) [Example 21, N-(4-(((R)-1-Hydroxy-4-methylpentan-2-yl)amino)-6-((S*)-2-(3,4,5-trifluorophenyl)propyl)-1,3,5-triazin-2-yl)methanesulfonamide], with 6410 nM. The value for `CC(C)C[C@H](CO)Nc1nc(C[C@@H](C)c2cc(F)c(F)c(F)c2)nc(NS(C)(=O)=O)n1` (single isomer, unassigned) [Example 22, N-(4-(((R)-1-Hydroxy-4-methylpentan-2-yl)amino)-6-((R*)-2-(3,4,5-trifluorophenyl)propyl)-1,3,5-triazin-2-yl)methanesulfonamide] was 257 nM; that for `CC(C)C[C@H](CO)Nc1nc(C[C@H](C)c2cc(F)ccc2F)nc(NS(C)(=O)=O)n1` (single isomer, unassigned) [Example 23, N-(4-((S*)-2-(2,5-Difluorophenyl)propyl)-6-(((R)-1-hydroxy-4-methylpentan-2-yl)amino)-1,3,5-triazin-2-yl)methanesulfonamide] was 548 nM.

In the case of `CC(C)C[C@H](CO)Nc1nc(C[C@@H](C)c2cc(F)ccc2F)nc(NS(C)(=O)=O)n1` (single isomer, unassigned) [Example 24, N-(4-((R*)-2-(2,5-Difluorophenyl)propyl)-6-(((R)-1-hydroxy-4-methylpentan-2-yl)amino)-1,3,5-triazin-2-yl)methanesulfonamide], the IC50 was determined as 78 nM. On to `CCOc1ccc([C@H](C)Cc2nc(N[C@@H](CO)CC(C)C)nc(NS(C)(=O)=O)n2)cn1` (single isomer, unassigned) [Example 27, N-(4-((R*)-2-(6-Ethoxypyridin-3-yl)propyl)-6-(((R)-1-hydroxy-4-methylpentan-2-yl)amino)-1,3,5-triazin-2-yl)methanesulfonamide], for which the IC50 stood at 138 nM.

In the case of `CCOc1ccc([C@@H](C)Cc2nc(N[C@@H](CO)CC(C)C)nc(NS(C)(=O)=O)n2)cn1` (single isomer, unassigned) [Example 28, N-(4-((S*)-2-(6-Ethoxypyridin-3-yl)propyl)-6-(((R)-1-hydroxy-4-methylpentan-2-yl)amino)-1,3,5-triazin-2-yl)methanesulfonamide], the IC50 came to 2780 nM. The value for `CC(C)C[C@H](CO)Nc1nc(C[C@H](C)c2cc(Cl)ccc2F)nc(NS(C)(=O)=O)n1` (single isomer, unassigned) [Example 29, N-(4-((S*)-2-(5-Chloro-2-fluorophenyl)propyl)-6-(((R)-1-hydroxy-4-methylpentan-2-yl)amino)-1,3,5-triazin-2-yl)methanesulfonamide] was 794 nM; that for `CC(C)C[C@H](CO)Nc1nc(C[C@@H](C)c2cc(Cl)ccc2F)nc(NS(C)(=O)=O)n1` (single isomer, unassigned) [Example 30, N-(4-((R*)-2-(5-Chloro-2-fluorophenyl)propyl)-6-(((R)-1-hydroxy-4-methylpentan-2-yl)amino)-1,3,5-triazin-2-yl)methanesulfonamide] was 148 nM. The value for `CC(C)C[C@H](CO)Nc1nc(C[C@@H](C)c2cc(F)c(Cl)c(F)c2)nc(NS(C)(=O)=O)n1` (single isomer, unassigned) [Example 31, N-(4-((R*)-2-(4-Chloro-3,5-difluorophenyl)propyl)-6-(((R)-1-hydroxy-4-methylpentan-2-yl)amino)-1,3,5-triazin-2-yl)methanesulfonamide] was 287 nM; that for `CC(C)C[C@H](CO)Nc1nc(C[C@H](C)c2cc(F)c(Cl)c(F)c2)nc(NS(C)(=O)=O)n1` (single isomer, unassigned) [Example 32, N-(4-((S*)-2-(4-Chloro-3,5-difluorophenyl)propyl)-6-(((R)-1-hydroxy-4-methylpentan-2-yl)amino)-1,3,5-triazin-2-yl)methanesulfonamide] was 7560 nM. The value for `CC(C)C[C@H](CO)Nc1nc(C[C@H](C)c2ccc(Cl)c(F)c2F)nc(NS(C)(=O)=O)n1` (single isomer, unassigned) [Example 33, N-(4-((S*)-2-(4-Chloro-2,3-difluorophenyl)propyl)-6-(((R)-1-hydroxy-4-methylpentan-2-yl)amino)-1,3,5-triazin-2-yl)methanesulfonamide] was 384 nM.

The compound `CC(C)C[C@H](CO)Nc1nc(C[C@@H](C)c2ccc(Cl)c(F)c2F)nc(NS(C)(=O)=O)n1` (single isomer, unassigned) [Example 34, N-(4-((R*)-2-(4-Chloro-2,3-difluorophenyl)propyl)-6-(((R)-1-hydroxy-4-methylpentan-2-yl)amino)-1,3,5-triazin-2-yl)methanesulfonamide] gave an IC50 of 52 nM. Take `CC(C)C[C@H](CO)Nc1nc(C[C@H](C)c2cc(F)c(F)cc2F)nc(NS(C)(=O)=O)n1` (single isomer, unassigned) [Example 35, N-(4-(((R)-1-Hydroxy-4-methylpentan-2-yl)amino)-6-((S*)-2-(2,4,5-trifluorophenyl)propyl)-1,3,5-triazin-2-yl)methanesulfonamide]: the 50% inhibitory concentration (IC50) was 2530 nM.

`CC(C)C[C@H](CO)Nc1nc(C[C@@H](C)c2cc(F)c(F)cc2F)nc(NS(C)(=O)=O)n1` (single isomer, unassigned) [Example 36, N-(4-(((R)-1-Hydroxy-4-methylpentan-2-yl)amino)-6-((R*)-2-(2,4,5-trifluorophenyl)propyl)-1,3,5-triazin-2-yl)methanesulfonamide]: the IC50 turned out to be 504 nM. The value for `CC(C)C[C@H](CO)Nc1nc(C[C@H](C)c2cc(F)c(Cl)cc2F)nc(NS(C)(=O)=O)n1` (single isomer, unassigned) [Example 37, N-(4-((S*)-2-(4-Chloro-2,5-difluorophenyl)propyl)-6-(((R)-1-hydroxy-4-methylpentan-2-yl)amino)-1,3,5-triazin-2-yl)methanesulfonamide] was 1930 nM; that for `CC(C)C[C@H](CO)Nc1nc(C[C@@H](C)c2cc(F)c(Cl)cc2F)nc(NS(C)(=O)=O)n1` (single isomer, unassigned) [Example 38, N-(4-((R*)-2-(4-Chloro-2,5-difluorophenyl)propyl)-6-(((R)-1-hydroxy-4-methylpentan-2-yl)amino)-1,3,5-triazin-2-yl)methanesulfonamide] was 685 nM. Then `CC(C)C[C@H](CO)Nc1nc(C[C@H](C)c2c(F)cc(F)cc2F)nc(NS(C)(=O)=O)n1` (single isomer, unassigned) [Example 39, N-(4-(((R)-1-Hydroxy-4-methylpentan-2-yl)amino)-6-((S*)-2-(2,4,6-trifluorophenyl)propyl)-1,3,5-triazin-2-yl)methanesulfonamide], with greater than 10000 nM. On to `CC(C)C[C@H](CO)Nc1nc(C[C@@H](C)c2c(F)cc(F)cc2F)nc(NS(C)(=O)=O)n1` (single isomer, unassigned) [Example 40, N-(4-(((R)-1-Hydroxy-4-methylpentan-2-yl)amino)-6-((R*)-2-(2,4,6-trifluorophenyl)propyl)-1,3,5-triazin-2-yl)methanesulfonamide], for which the IC50 is 65 nM. The compound `CC(C)C[C@H](CO)Nc1nc(C[C@H](C)c2c(F)ccc(F)c2F)nc(NS(C)(=O)=O)n1` (single isomer, unassigned) [Example 41, N-(4-(((R)-1-Hydroxy-4-methylpentan-2-yl)amino)-6-((S*)-2-(2,3,6-trifluorophenyl)propyl)-1,3,5-triazin-2-yl)methanesulfonamide] had an IC50 greater than 10000 nM.

Regarding `CC(C)C[C@H](CO)Nc1nc(C[C@@H](C)c2c(F)ccc(F)c2F)nc(NS(C)(=O)=O)n1` (single isomer, unassigned) [Example 42, N-(4-(((R)-1-Hydroxy-4-methylpentan-2-yl)amino)-6-((R*)-2-(2,3,6-trifluorophenyl)propyl)-1,3,5-triazin-2-yl)methanesulfonamide], the IC50 was 30 nM.

As usually defined, the IC50 is the concentration that gives 50% inhibition. Low readings indicate greater potency in that assay, high ones weaker potency in that assay.
